For 47 compounds, melting point and IC50 results are on record in patent publication US6441021B1, “Sulfonated amino acid derivatives and metalloproteinase inhibitors containing the same” (Shionogi & Co., Ltd., priority 1996, dated 2002).

The target of data set [1] is T1, MMP-9 (92 kDa, gelatinase B; type IV collagenase) (Homo sapiens, UniProt P14780).
T1 construct: endogenous in cells; enzyme purified from the conditioned medium
Kind of data set: Assay of type IV collagenase inhibitors: activated MMP-9 with type IV collagenase activity kit substrate, fluorescent intensity. The format is biochemical. On the procedure:
(1) Isolation and Purification of MMP-9 (92 kDa, Gelatinase B)
Type IV collagenase (MMP-9) was purified according to the methods descrived in the following literature.
Subsequently, activated MMP-9 was obtained by treating the pro-MMP-9 with trypsin.
(2) Assay Methods of Type IV Collagenase Inhibitors
Collagenase assay was performed using the activated MMP-9 described above and the substrate supplied in the type IV collagenase activity kit (YAGAI, inc.), according to the manufacturer's protocol. The following 4 assays are performed per compound (inhibitor).
(A) substrate (type IV collagenase), enzyme (MMP-9), inhibitor
(B) substrate (type IV collagenase), inhibitor
(C) substrate (type IV collagenase), enzyme (MMP-9)
(D) substrate (type IV collagenase)
According to the manufacturer's protocol, fluorescent intensity was measured and percent inhibition was determined by the following equation.
Inhibition (%)={1−(A−B)/(C−D)}×100

Setting [2] is: inhibition of type IV collagenase (MMP-9), concentration at which percent inhibition reaches 50%.

Each structure is given as a SMILES string. pIC50: −log10 of the molar value. Read-outs that look alike come from different tables or passages of the source.

T1 sequence (P14780 107-707 limits assumed): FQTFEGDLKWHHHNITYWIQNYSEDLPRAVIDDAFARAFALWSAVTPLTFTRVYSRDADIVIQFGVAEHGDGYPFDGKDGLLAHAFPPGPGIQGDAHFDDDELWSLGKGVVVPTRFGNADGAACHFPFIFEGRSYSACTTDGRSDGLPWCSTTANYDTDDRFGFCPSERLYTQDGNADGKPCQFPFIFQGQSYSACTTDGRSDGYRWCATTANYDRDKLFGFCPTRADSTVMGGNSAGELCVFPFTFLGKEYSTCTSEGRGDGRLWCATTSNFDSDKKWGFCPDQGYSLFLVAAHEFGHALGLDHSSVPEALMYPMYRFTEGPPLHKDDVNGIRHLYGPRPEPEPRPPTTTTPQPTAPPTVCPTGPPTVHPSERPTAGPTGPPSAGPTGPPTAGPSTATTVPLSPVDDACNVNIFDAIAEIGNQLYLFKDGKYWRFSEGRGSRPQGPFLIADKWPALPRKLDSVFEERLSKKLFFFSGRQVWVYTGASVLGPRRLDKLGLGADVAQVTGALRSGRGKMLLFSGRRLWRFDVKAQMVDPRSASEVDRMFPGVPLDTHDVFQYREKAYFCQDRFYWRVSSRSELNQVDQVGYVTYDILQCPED

`COc1ccc(C(=O)Nc2ccc(S(=O)(=O)N[C@H](Cc3c[nH]c4ccccc34)C(=O)O)cc2)cc1` (hydrate or solvate) [Example 178] had a melting point of 233 to 234 °C.

As for `O=C(Nc1ccc(S(=O)(=O)N[C@H](Cc2c[nH]c3ccccc23)C(=O)O)cc1)c1ccc([N+](=O)[O-])cc1` (hydrate or solvate) [Example 180], the melting point lay in the range of 211 to 213 °C.

For the compound `CN(C)c1ccc(C(=O)Nc2ccc(S(=O)(=O)N[C@H](Cc3c[nH]c4ccccc34)C(=O)O)cc2)cc1` (hydrate or solvate) [Example 181], the melting point lay in the range of 236 to 238 °C.

As for `Cc1ccc(C(=O)Nc2ccc(S(=O)(=O)N[C@H](Cc3c[nH]c4ccccc34)C(=O)O)cc2)cc1` (hydrate or solvate) [Example 182], the melting point was 240 to 244 °C.

Regarding `O=C(Nc1ccc(S(=O)(=O)N[C@H](Cc2c[nH]c3ccccc23)C(=O)O)cc1)c1ccc(Br)cc1` (hydrate or solvate) [Example 183], the melting point fell in the range of 215 to 218 °C.

With `CSc1ccc(C(=O)Nc2ccc(S(=O)(=O)N[C@H](Cc3c[nH]c4ccccc34)C(=O)O)cc2)cc1` (hydrate or solvate) [Example 184], the melting point was 244 to 249 °C.

Take `O=C(Nc1ccc(S(=O)(=O)N[C@H](Cc2c[nH]c3ccccc23)C(=O)O)cc1)c1ccc(F)cc1` (hydrate or solvate) [Example 185]: the melting point was 170 to 175 °C.

On to `CC(C)[C@@H](NS(=O)(=O)c1ccc(NC(=O)c2ccc(-c3ccccc3)cc2)cc1)C(=O)O` (hydrate or solvate) [Example 195], for which the melting point lay within 254 to 256 °C.

On to `Cc1ccc(C(=O)Nc2ccc(S(=O)(=O)N[C@@H](C(=O)O)C(C)C)cc2)cc1` (hydrate or solvate) [Example 196], for which the melting point lay in the range of 227 to 229 °C.

As to `CC(C)[C@@H](NS(=O)(=O)c1ccc(NC(=O)c2ccccc2)cc1)C(=O)O` (hydrate or solvate) [Example 199], the melting point fell in the range of 226 to 227 °C.

With `COc1ccc(C(=O)Nc2ccc(S(=O)(=O)N[C@@H](C(=O)O)C(C)C)cc2)cc1` (hydrate or solvate) [Example 200], the melting point was 220 to 221 °C.

Turning to `CC(C)[C@@H](NS(=O)(=O)c1ccc(NC(=O)c2ccc([N+](=O)[O-])cc2)cc1)C(=O)O` (hydrate or solvate) [Example 201], the melting point lay in the range of 240 to 242 °C.

`COc1ccc(C(=O)Nc2ccc(S(=O)(=O)N[C@@H](C(=O)O)C(C)(C)C)cc2)cc1` (hydrate or solvate) [Example 203] yielded a melting point of 214 to 216 °C.

Take `O=C(O)C(Cc1cccc2ccccc12)NS(=O)(=O)c1ccc(-c2nnn(-c3ccccc3)n2)cc1` (centres unmarked) (hydrate or solvate) [Example 218]: the melting point is 225 to 227 °C.

As for `O=Cn1cc(C[C@@H](NS(=O)(=O)c2ccc(-c3nnn(-c4ccccc4)n3)cc2)C(=O)O)c2ccccc21` (hydrate or solvate) [Example 219], the melting point lay in the range of 111 to 114 °C.

Compound `CCC(C)[C@@H](NS(=O)(=O)c1ccc(-c2nnn(-c3ccc(OC)cc3)n2)cc1)C(=O)O` (some centres unmarked) (hydrate or solvate) [Example 222] displayed a melting point of 204 to 207 °C.

`CC(C)[C@@H](NS(=O)(=O)c1ccc(-c2nnn(-c3ccc(Br)cc3)n2)cc1)C(=O)O` (hydrate or solvate) [Example 225] yielded a melting point of 227 to 228 °C.

As to `O=C(O)[C@@H](Cc1ccccc1)NS(=O)(=O)c1ccc(-c2nnn(-c3ccc([N+](=O)[O-])cc3)n2)cc1` (hydrate or solvate) [Example 230], the melting point fell in the range of 190 to 191 °C.

For the compound `O=C(O)[C@@H](Cc1ccccc1)NS(=O)(=O)c1ccc(-c2nnn(-c3ccc(F)cc3)n2)cc1` (hydrate or solvate) [Example 231], the melting point was in the range of 205 to 207 °C.

The compound `O=C(O)[C@@H](Cc1ccccc1)NS(=O)(=O)c1ccc(-c2nnn(-c3ccc(Cl)cc3)n2)cc1` (hydrate or solvate) [Example 232] yielded a melting point of 204 to 206 °C.

Compound `Cc1ccc(-n2nnc(-c3ccc(S(=O)(=O)N[C@H](Cc4ccccc4)C(=O)O)cc3)n2)cc1` (hydrate or solvate) [Example 233] returned a melting point of 226 to 227 °C.

In turn, `COc1ccc(-n2nnc(-c3ccc(S(=O)(=O)N[C@H](Cc4ccccc4)C(=O)O)cc3)n2)cc1` (hydrate or solvate) [Example 234] gave a melting point of 214 to 216 °C.

`N#Cc1ccc(-n2nnc(-c3ccc(S(=O)(=O)N[C@H](Cc4ccccc4)C(=O)O)cc3)n2)cc1` (hydrate or solvate) [Example 235] gave a melting point of 190 to 192 °C.

Regarding `O=C(O)[C@@H](Cc1ccccc1)NS(=O)(=O)c1ccc(-c2nnn(-c3ccc(C4CCCCC4)cc3)n2)cc1` (hydrate or solvate) [Example 237], the melting point fell in the range of 225 to 227 °C.

`O=C(O)[C@@H](Cc1c[nH]c2ccccc12)NS(=O)(=O)c1ccc(-c2nnn(-c3ccc(Br)cc3)n2)cc1` (hydrate or solvate) [Example 240] gave a melting point of 205 to 207 °C.

The compound `Cc1ccc(-n2nnc(-c3ccc(S(=O)(=O)N[C@H](Cc4c[nH]c5ccccc45)C(=O)O)cc3)n2)cc1` (hydrate or solvate) [Example 241] displayed a melting point of 199 to 201 °C.

In turn, `Cc1ccc(-n2nnc(-c3ccc(S(=O)(=O)N[C@@H](C(=O)O)C(C)C)cc3)n2)cc1` (hydrate or solvate) [Example 242] returned a melting point of 206 to 207 °C.

`CC(C)[C@@H](NS(=O)(=O)c1ccc(-c2nnn(-c3ccc(F)cc3)n2)cc1)C(=O)O` (hydrate or solvate) [Example 243] came in with a melting point of 208 to 209 °C.

In turn, `CSc1ccc(-n2nnc(-c3ccc(S(=O)(=O)N[C@@H](C(=O)O)C(C)C)cc3)n2)cc1` (hydrate or solvate) [Example 245] came in with a melting point of 194 to 195 °C.

The compound `CSc1ccc(-n2nnc(-c3ccc(S(=O)(=O)N[C@H](Cc4ccccc4)C(=O)O)cc3)n2)cc1` (hydrate or solvate) [Example 246] gave a melting point of 222 to 224 °C.

In turn, `CSc1ccc(-n2nnc(-c3ccc(S(=O)(=O)N[C@H](Cc4c[nH]c5ccccc45)C(=O)O)cc3)n2)cc1` (hydrate or solvate) [Example 247] came in with a melting point of 213 to 216 °C.

In turn, `O=C(Nc1ccc(S(=O)(=O)N[C@H](Cc2c[nH]c3ccccc23)C(=O)O)cc1)c1ccccc1` [Example 177] came in with a melting point of 215 to 217 °C. In data set [1] (setting [2]), this compound gave a pIC50 of 6.16.

In turn, `Nc1ccc(C(=O)Nc2ccc(S(=O)(=O)N[C@H](Cc3c[nH]c4ccccc34)C(=O)O)cc2)cc1` [Example 179] registered a melting point of 216 to 218 °C. In data set [1], this compound gave a pIC50 of 5.63.

Compound `COc1ccc(C(=O)Nc2ccc(S(=O)(=O)N[C@H](Cc3ccccc3)C(=O)O)cc2)cc1` [Example 186] returned a melting point of 237 to 239 °C. Also, the pIC50 in data set [1] was 7.01.

In the case of `O=C(Nc1ccc(S(=O)(=O)N[C@H](Cc2ccccc2)C(=O)O)cc1)c1ccc([N+](=O)[O-])cc1` [Example 187], the melting point lay in the range of 235 to 239 °C. The pIC50 in data set [1] was 6.75.

In the case of `O=C(Nc1ccc(S(=O)(=O)N[C@H](Cc2ccccc2)C(=O)O)cc1)c1ccccc1` [Example 188], the melting point was 114 to 115 °C. The pIC50 in data set [1] (setting [2]) was 6.07.

As to `O=C(Nc1ccc(S(=O)(=O)N[C@H](Cc2ccccc2)C(=O)O)cc1)c1ccc(Br)cc1` [Example 189], the melting point lay in the range of 242 to 243 °C. This compound also had a pIC50 in data set [1] of 7.43.

Regarding `Cc1ccc(C(=O)Nc2ccc(S(=O)(=O)N[C@H](Cc3ccccc3)C(=O)O)cc2)cc1` [Example 190], the melting point lay in the range of 242 to 244 °C. Also, the pIC50 in data set [1] (setting [2]) was 7.22.

The compound `CSc1ccc(C(=O)Nc2ccc(S(=O)(=O)N[C@H](Cc3ccccc3)C(=O)O)cc2)cc1` [Example 191] came in with a melting point of 232 to 235 °C. For the same compound, in data set [1], the pIC50 is 8.02.

`O=C(Nc1ccc(S(=O)(=O)N[C@H](Cc2ccccc2)C(=O)O)cc1)c1ccc(F)cc1` [Example 192] showed a melting point of 218 to 220 °C. Also, in data set [1], the pIC50 is 6.49.

As for `O=C(Nc1ccc(S(=O)(=O)N[C@H](Cc2ccccc2)C(=O)O)cc1)c1ccc(Cl)nc1` [Example 193], the melting point was in the range of 201 to 203 °C. Moreover, the negative-log IC50 (pIC50) in data set [1] was 6.14.

For `CSc1ccc(C(=O)Nc2ccc(S(=O)(=O)N[C@@H](C(=O)O)C(C)C)cc2)cc1` [Example 197], the melting point was in the range of 231 to 234 °C. Besides, the pIC50 in data set [1] (setting [2]) was 7.79.

`CC(C)[C@@H](NS(=O)(=O)c1ccc(NC(=O)c2ccc(F)cc2)cc1)C(=O)O` [Example 198] showed a melting point of 235 to 236 °C. In addition, the pIC50 in data set [1] is 6.31.

As to `COc1ccc(-n2nnc(-c3ccc(S(=O)(=O)N[C@H](Cc4c[nH]c5ccccc45)C(=O)O)cc3)n2)cc1` [Example 220], the melting point fell in the range of 195 to 196 °C.

For `CC(C)[C@H](C(=O)O)N(C)S(=O)(=O)c1ccc(Oc2ccccc2)cc1` [Example 252], in data set [1], the pIC50 was 6.62.

`CC(C)[C@H](C(=O)O)N(CCCCN)S(=O)(=O)c1ccc(Oc2ccccc2)cc1` [Example 255]: in data set [1], the pIC50 was 6.28.

With `O=C(O)[C@@H](Cc1ccccc1)N(Cc1ccccc1)S(=O)(=O)c1ccc(-c2nnn(-c3ccccc3)n2)cc1` [Example 258], the pIC50 in data set [1] was 6.04. Compared with the last compound, the pIC50 is 0.24 log units lower.
